Assay results reported in patent US20030225007A1, “Sulfonamide derivatives of 3-substituted imidazol[1,2-d]-1,2,4-thiadiazoles and 3-substituted-[1,2,4] thiadiazolo[4,5-a] benzimidazole as inhibitors of fibrin cross-linking and transglutaminases” (Apotex Inc., priority 2002, published 2003).

Tests used:
[1] = target: T1, endogenous Factor XIII in plasma (Plasma FXIIIa) (Homo sapiens, UniProt P00488); assay: Inactivation of endogenous Factor XIII in plasma; type: biochemical; conditions: citrated plasma, thrombin-activated, 5 min at 37° C.
T1 construct: from tissue; host or cells: citrated plasma (desensitized by heating)
T1 sequence (P00488 39-732 limits assumed): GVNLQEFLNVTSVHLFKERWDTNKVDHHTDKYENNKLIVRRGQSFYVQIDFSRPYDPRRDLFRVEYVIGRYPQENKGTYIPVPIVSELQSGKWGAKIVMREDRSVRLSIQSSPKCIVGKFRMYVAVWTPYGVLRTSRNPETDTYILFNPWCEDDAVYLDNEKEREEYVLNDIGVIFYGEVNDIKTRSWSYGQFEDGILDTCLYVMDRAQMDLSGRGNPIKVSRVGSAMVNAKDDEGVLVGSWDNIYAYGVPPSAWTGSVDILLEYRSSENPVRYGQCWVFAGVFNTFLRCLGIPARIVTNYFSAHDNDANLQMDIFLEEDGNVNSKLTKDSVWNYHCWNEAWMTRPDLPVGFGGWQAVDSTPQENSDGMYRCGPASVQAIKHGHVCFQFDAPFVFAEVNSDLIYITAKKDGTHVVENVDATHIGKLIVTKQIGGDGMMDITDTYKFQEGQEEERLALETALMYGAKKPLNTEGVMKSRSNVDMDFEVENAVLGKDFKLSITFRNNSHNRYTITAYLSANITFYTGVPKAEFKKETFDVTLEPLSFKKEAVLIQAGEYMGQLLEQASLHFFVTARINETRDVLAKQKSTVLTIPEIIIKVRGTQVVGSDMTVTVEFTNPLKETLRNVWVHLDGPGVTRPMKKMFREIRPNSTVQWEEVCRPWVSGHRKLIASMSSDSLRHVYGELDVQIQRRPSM
Experimental: Citrated plasma (0.235 mL) was “desensitized” by heating with ethylene glycol monomethyl ether (0.235 mL, 20% solution in water) in a glass test tube at 56° C. for 4 min., as described by Lorand (Lorand, L.; Lockridge, O. M.; Campbell, L. K.; Myhrman, R.; Bruner-Lorand, J. Anal.Biochem. 1971, 44, 221-231). After cooling to 37° C., calcium chloride (20 μL, 0.4 M in 50 mM Tris-HCl pH 7.5) and inhibitor solution in 50% glycerol (59 μL) were added. Bovine thrombin (30 NIH units in 118 μL of 50 mM Tris-HCl pH 7.5 containing 20 mM CaCl2) was added and the mixture was incubated at 37° C. for 5 min.
An assay mixture composed of 0.1 M sodium borate, pH 9.0, 0.3% ethylene glycol monomethyl ether, 32 μM monodansylcadaverine, 10 mM CaCl2 and 0.08% dimethyl casein in a final volume of 1.263 mL was prepared in a spectrofluorometric cell and incubated at 37° C. for a few minutes. To assay the residual enzyme activity, 567 μL of the plasma solution was transferred to the assay mixture. The covalent incorporation of monodansylcadaverine into casein was monitored by an increase in fluorescence at λex=360 nm and λem=500 nm, as previously described (Curtis, C. G.; Lorand, L. Methods Enzymol. 1976, 45, 177-191). To determine uninhibited enzyme activity, inhibitor solution was replaced by 50% glycerol. IC50 values (inhibitor concentration resulting in 50% enzyme inactivation) were determined by plotting the percent of remaining enzyme activity against logarithm of inhibitor concentration.

[2] = target: T2, Factor XIIIa (activated FXIII) (Homo sapiens, UniProt P00488); assay: Inactivation of purified Factor XIIIa (monodansylcadaverine incorporation into dimethylcasein, fluorescence); type: biochemical; conditions: purified activated FXIII; 50% enzyme inactivation after 5-min incubation with inhibitor at 37° C. in the absence of substrate; read-out: FXIIIa (IC50 in μM)
T2 construct: purchased Enzyme Research Laboratories, Ltd
T2 sequence (P00488 39-732 limits assumed): T1 sequence (P00488 39-732 limits assumed)
Experimental: FXIII (0.5 mg/mL, Enzyme Research Laboratories, Ltd.) in 50 mM Tris-HCl pH 7.5 containing 100 mM NaCl, 40 mM CaCl2, 1 mM EDTA and 0.1% poly(ethylene glycol) (app. MW=8000) was activated by incubation with 10 NIH units/mL of human thrombin (Calbiochem) at 37° C. for 20 min. Thrombin was quenched with 20 NIH units/mL of hirudin from Leech (Sigma).
Inhibitor solution in DMSO (14 μL) was added to 120 μL of 250 mM Tris-Cl pH 7.5 containing 40 mM CaCl2 and 1 mM EDTA and the solution was incubated at 37° C. for two minutes. Activated FXIII (5 μL, 0.5 mg/mL) was added and the mixture was incubated at 37° C. for 5 min.
An assay mixture composed of 50 mM Tris-Cl pH 8.0, 10 mM CaCl2, 1 mM EDTA, 0.1% poly(ethylene glycol) (app. MW=1000) and 20 μM monodansylcadaverine was prepared in a spectrofluorometric cell in a final volume of 2880 μL. Dimethylcasein (8 μL, 1% in 50 mM sodium phosphate pH 7.5) was added and the solution was incubated at 37° C. for a few minutes. To assay the residual enzyme activity, 120 μL of the solution containing the enzyme and the inhibitor was transferred to the assay mixture. The covalent incorporation of monodansylcadaverine into casein was monitored by an increase in fluorescence at λexc=360 nm and λem=500 nm as previously described (Curtis, C. G.; Lorand, L. Methods Enzymol. 1976, 45, 177-191). To determine uninhibited enzyme activity, DMSO was used in place of inhibitor solution in the above assay. IC50 were determined by plotting the percent of remaining enzyme activity against logarithm of inhibitor concentration. IC50 is defined here as an inhibitor concentration resulting in 50% enzyme inactivation after 5-min incubation of the enzyme with the inhibitor in the absence of the substrate. Second order rate constants for inactivation were determined using method described by Kitz and Wilson (Kitz, R.; Wilson, I. J. Biol. Chem. 1962, 237, 3245).

IC50 [1] [µM]	IC50 [2] [µM]	melting point [°C]	Structure (SMILES)
7.1			CN(C)c1cccc2c(S(=O)(=O)NCCCCCNc3nsc4nccn34)cccc12 [1 / 5-Me2N-1-naphthyl, 5-(Dimethylamino)-N-[5-(imidazo[1,2-d][1,2,4]thiadiazol-3-ylamino)pentyl]naphthalene-1-sulfonamide]
38			CS(=O)(=O)NCCCCCCNc1nsc2nccn12 [2 / CH3, N-[6-(Imidazo[1,2-d][1,2,4]thiadiazol-3-ylamino)hexyl]methanesulfonamide]
	5.2	97 to 100	O=C(O)CCN(CCCCCCNc1nsc2nccn12)S(=O)(=O)c1ccc(F)cc1F [2 / OH / 2-F-4-F-Ph, N-[(2,4-difluorophenyl)sulfonyl]-N-[6-(imidazo[1,2-d][1,2,4]thiadiazol-3-ylamino)hexyl]-β-alanine]
	1.3	151 to 153	Cc1c(Cl)cccc1S(=O)(=O)NCCCCCCNc1nsc2nccn12 [2-Me-3-Cl-Ph, 3-chloro-N-[6-(imidazo[1,2-d][1,2,4]thiadiazol-3-ylamino)hexyl]-2-methylbenzenesulfonamide]
	10	140 to 142	Cc1ccc(F)cc1S(=O)(=O)NCCCCCCNc1nsc2nccn12 [2-Me-5-F-Ph, 5-fluoro-N-[6-(imidazo[1,2-d][1,2,4]thiadiazol-3-ylamino)hexyl]-2-methylbenzenesulfonamide]
	2	138 to 139	Nc1ccccc1S(=O)(=O)NCCCCCCNc1nsc2nccn12 [2-NH2-Ph, 2-amino-N-[6-(imidazo[1,2-d][1,2,4]thiadiazol-3-ylamino)hexyl]benzenesulfonamide]
		113.7 to 114.6	O=[N+]([O-])c1ccccc1S(=O)(=O)NCCCCCCNc1nsc2nccn12 [H / H / 2-NO2-Ph, N-[6-(imidazo[1,2-d][1,2,4]thiadiazol-3-ylamino)hexyl]-2-nitrobenzenesulfonamide]
